Data on 25 compounds can be found in patent US20200123115A1, “COMPOUNDS HAVING MULTIMODAL ACTIVITY AGAINST PAIN” (ESTEVE PHARMACEUTICALS, S.A., priority 2017, published 2020).

Test [1] deals with Human α2δ-1 subunit of Cav2.2 calcium channel (Homo sapiens, UniProt P54289). The experiment in a line: Human α2δ-1 subunit of Cav2.2 calcium channel assay, [3H]-Gabapentin binding. Conditions: human α2δ-1 enriched membranes, 15 nM [3H]-Gabapentin. On the procedure: Human α2δ-1 Subunit of Cav2.2 Calcium Channel Assay
Chain of Human α2δ-1 subunit of Cav2.2 calcium channel (P54289 25-1103): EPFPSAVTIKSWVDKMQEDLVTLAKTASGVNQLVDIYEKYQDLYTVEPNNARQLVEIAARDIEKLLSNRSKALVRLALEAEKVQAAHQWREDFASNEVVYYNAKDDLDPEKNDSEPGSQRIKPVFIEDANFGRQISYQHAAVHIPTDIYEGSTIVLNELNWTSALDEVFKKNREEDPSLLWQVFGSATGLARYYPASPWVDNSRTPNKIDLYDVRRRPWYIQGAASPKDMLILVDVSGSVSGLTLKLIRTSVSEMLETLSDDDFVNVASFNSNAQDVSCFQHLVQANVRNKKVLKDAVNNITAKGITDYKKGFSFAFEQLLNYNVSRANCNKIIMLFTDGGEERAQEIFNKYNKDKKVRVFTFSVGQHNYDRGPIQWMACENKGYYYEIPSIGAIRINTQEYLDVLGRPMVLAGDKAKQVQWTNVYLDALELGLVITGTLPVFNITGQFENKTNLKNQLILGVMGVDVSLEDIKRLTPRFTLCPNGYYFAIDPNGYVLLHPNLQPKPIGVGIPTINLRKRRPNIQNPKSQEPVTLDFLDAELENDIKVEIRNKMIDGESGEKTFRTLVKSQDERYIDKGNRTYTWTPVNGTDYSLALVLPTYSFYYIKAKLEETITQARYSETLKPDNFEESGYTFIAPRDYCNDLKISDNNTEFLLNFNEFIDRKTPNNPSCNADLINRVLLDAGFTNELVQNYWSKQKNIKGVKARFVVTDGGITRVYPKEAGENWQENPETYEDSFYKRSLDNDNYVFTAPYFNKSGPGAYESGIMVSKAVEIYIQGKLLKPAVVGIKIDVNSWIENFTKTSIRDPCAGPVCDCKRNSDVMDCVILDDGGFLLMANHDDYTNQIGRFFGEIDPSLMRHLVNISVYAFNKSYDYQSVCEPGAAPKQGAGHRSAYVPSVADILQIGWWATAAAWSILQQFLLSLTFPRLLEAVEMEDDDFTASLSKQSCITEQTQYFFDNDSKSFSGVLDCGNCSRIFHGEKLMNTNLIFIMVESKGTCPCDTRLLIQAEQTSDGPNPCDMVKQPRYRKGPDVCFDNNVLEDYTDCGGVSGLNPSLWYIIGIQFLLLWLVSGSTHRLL
Human α2δ-1 enriched membranes (2.5 μg) were incubated with 15 nM of radiolabeled [3H]-Gabapentin in assay buffer containing Hepes-KOH 10 mM, pH 7.4. NSB (non specific binding) was measured by adding 10 μM pregabalin. After 60 min incubation at 27° C., binding reaction was terminated by filtering through Multiscreen GF/C (Millipore) presoaked in 0.5% polyethyleneimine in Vacuum Manifold Station, followed by 3 washes with ice-cold filtration buffer containing 50 mM Tris-HCl, pH 7.4. Filter plates were dried at 60° C. for 1 hour and 30 μL of scintillation cocktail were added to each well before radioactivity reading. Readings were performed in a Trilux 1450 Microbeta radioactive counter (Perkin Elmer).

The target of test [2] is Human norepinephrine transporter (NET) (Homo sapiens, UniProt P23975). The experiment in a line: Binding assay to human norepinephrine transporter (NET), [3H]-Nisoxetin. Conditions: human NET enriched membranes, 5 nM [3H]-Nisoxetin. On the procedure: Binding Assay to Human Norepinephrine Transporter (NET).
Chain of Human norepinephrine transporter (NET) (P23975 whole entry): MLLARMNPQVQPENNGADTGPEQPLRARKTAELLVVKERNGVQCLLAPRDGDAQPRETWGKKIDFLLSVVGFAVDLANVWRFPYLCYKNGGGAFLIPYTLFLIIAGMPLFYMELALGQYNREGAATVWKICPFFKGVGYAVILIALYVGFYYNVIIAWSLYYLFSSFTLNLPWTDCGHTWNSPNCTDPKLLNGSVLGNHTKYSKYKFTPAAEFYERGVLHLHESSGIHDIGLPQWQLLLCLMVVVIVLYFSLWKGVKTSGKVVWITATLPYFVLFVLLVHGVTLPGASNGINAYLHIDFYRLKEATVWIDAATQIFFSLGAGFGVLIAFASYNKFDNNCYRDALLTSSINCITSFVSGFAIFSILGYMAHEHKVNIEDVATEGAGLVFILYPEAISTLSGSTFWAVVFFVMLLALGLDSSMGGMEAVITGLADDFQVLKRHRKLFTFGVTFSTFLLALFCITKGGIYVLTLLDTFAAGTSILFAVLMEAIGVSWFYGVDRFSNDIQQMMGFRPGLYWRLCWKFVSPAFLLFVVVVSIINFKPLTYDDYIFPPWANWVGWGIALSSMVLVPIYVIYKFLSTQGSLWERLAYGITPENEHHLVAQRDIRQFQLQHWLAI
Human norepinephrine transporter (NET) enriched membranes (5 μg) were incubated with 5 nM of radiolabeled [3H]-Nisoxetin in assay buffer containing 50 mM Tris-HCl, 120 mM NaCl, 5 mM KCl, pH 7.4.
NSB (non specific binding) was measured by adding 1 μM. After 60 min incubation at 4° C., binding reaction was terminated by filtering through Multiscreen GF/C (Millipore) presoaked in 0.5% polyethyleneimine in Vacuum Manifold Station, followed by 3 washes with ice-cold filtration buffer containing 50 mM Tris-HCl, 0.9% NaCl, pH 7.4.
Filter plates were dried at 60° C. for 1 hour and 30 μL of scintillation cocktail were added to each well before radioactivity reading.
Readings were performed in a Trilux 1450 Microbeta radioactive counter (Perkin Elmer).

In general, Ki refers to the dissociation constant of the complex between target and ligand, obtained from inhibition or displacement. With `CNCCC(Oc1cccc(-c2ccnc(OC)n2)c1)c1ccccc1` (centres unmarked) [Example 1, 3-(3-(2-Methoxypyrimidin-4-yl)phenoxy)-N-methyl-3-phenylpropan-1-amine], the inhibitory constant (Ki) in test [1] is 500 to 5000 nM; in test [2], below 100 nM.

For the compound `CNCCC(Oc1cccc(-c2ccnc(C)n2)c1)c1ccccc1` (centres unmarked) [Example 2, N-methyl-3-(3-(2-methylpyrimidin-4-yl)phenoxy)-3-phenylpropan-1-amine], the inhibition constant (Ki) is 500 to 5000 nM in test [1] and 100 to 500 nM in test [2].

Regarding `CNCCC(Oc1cccc(-c2ccc(C)nn2)c1)c1ccccc1` (centres unmarked) [Example 3, N-methyl-3-(3-(6-methylpyridazin-3-yl)phenoxy)-3-phenylpropan-1-amine], the results for the inhibition constant Ki in test [1] and in test [2] were at least 5000 nM and 500 to 1000 nM, respectively.

For the compound `CNCCC(Oc1cccc(-c2ccncn2)c1)c1ccccc1` (centres unmarked) [Example 4, N-methyl-3-phenyl-3-(3-(pyrimidin-4-yl)phenoxy)propan-1-amine], the inhibition constant (Ki) in test [1] lay within 500 to 5000 nM; in test [2] it was 500 to 1000 nM.

Regarding `CNCC[C@H](Oc1cccc(-c2ccnc(SC)n2)c1)c1ccccc1` [Example 5, (S)—N-methyl-3-(3-(2-(methylthio)pyrimidin-4-yl)phenoxy)-3-phenylpropan-1-amine], the results for the Ki in test [1] and in test [2] were 500 to 5000 nM and below 100 nM, respectively.

Turning to `CNCC[C@H](Oc1cccc(-c2ccnc(C)n2)c1)c1ccccc1` [Example 6, (S)—N-methyl-3-(3-(2-methylpyrimidin-4-yl)phenoxy)-3-phenylpropan-1-amine], the Ki in test [1] was in the range of 500 to 5000 nM; in test [2], 100 to 500 nM.

In the case of `CNCC[C@@H](Oc1cccc(-c2ccnc(C)n2)c1)c1ccccc1` [Example 7, (R)—N-methyl-3-(3-(2-methylpyrimidin-4-yl)phenoxy)-3-phenylpropan-1-amine], the results for the Ki in test [1] and in test [2] were 500 to 5000 nM and 500 to 1000 nM, respectively.

With `CNCC[C@@H](Oc1cccc(-c2ccnc(SC)n2)c1)c1ccccc1` [Example 8, (R)—N-methyl-3-(3-(2-(methylthio)pyrimidin-4-yl)phenoxy)-3-phenylpropan-1-amine], the inhibitory constant (Ki) is 500 to 5000 nM in test [1] and below 100 nM in test [2].

With `CNCC[C@H](Oc1cccc(-c2ccnc(N)n2)c1)c1ccccc1` [Example 10, (S)-4-(3-(3-(methylamino)-1-phenylpropoxy)phenyl)pyrimidin-2-amine], the inhibition constant (Ki) in test [1] was in the range of 500 to 5000 nM; in test [2], 100 to 500 nM.

Regarding `CNCCC(Oc1cccc(-c2cnc(OC)nc2)c1)c1cccs1` (centres unmarked) [Example 18, 3-(3-(2-methoxypyrimidin-5-yl)phenoxy)-N-methyl-3-(thiophen-2-yl)propan-1-amine], the figures for the inhibition constant Ki in test [1] and in test [2] were 500 to 5000 nM and at least 1000 nM, respectively.

As to `CNCCC(Oc1cccc(-c2ccnc(C)c2)c1)c1cccs1` (centres unmarked) [Example 19, N-methyl-3-(3-(2-methylpyridin-4-yl)phenoxy)-3-(thiophen-2-yl)propan-1-amine], the inhibition constant (Ki) in test [1] was below 500 nM; in test [2], 100 to 500 nM.

With `CNCCC(Oc1cccc(-c2ccnc(C(F)(F)F)c2)c1)c1cccs1` (centres unmarked) [Example 22, N-methyl-3-(thiophen-2-yl)-3-(3-(2-(trifluoromethyl)pyridin-4-yl)phenoxy)propan-1-amine], the Ki in test [1] was 500 to 5000 nM; in test [2], 100 to 500 nM.

For the compound `CNCCC(Oc1cccc(-c2cnc(C)nc2)c1)c1cccs1` (centres unmarked) [Example 23, N-methyl-3-(3-(2-methylpyrimidin-5-yl)phenoxy)-3-(thiophen-2-yl)propan-1-amine], the Ki in test [1] was 500 to 5000 nM; in test [2], at least 1000 nM.

As for `CNCCC(Oc1cccc(-c2ccncc2C)c1)c1cccs1` (centres unmarked) [Example 24, N-methyl-3-(3-(3-methylpyridin-4-yl)phenoxy)-3-(thiophen-2-yl)propan-1-amine], the inhibition constant Ki is 500 to 5000 nM in test [1] and 500 to 1000 nM in test [2].

In the case of `CNCCC(Oc1cccc(-c2cc(C)nc(C)c2)c1)c1cccs1` (centres unmarked) [Example 26, 3-(3-(2,6-dimethylpyridin-4-yl)phenoxy)-N-methyl-3-(thiophen-2-yl)propan-1-amine], the Ki was 500 to 5000 nM in test [1] and 100 to 500 nM in test [2].

Take `CNCCC(Oc1cccc(-c2ccncc2)c1)c1cccs1` (centres unmarked) [Example 27, N-methyl-3-(3-(pyridin-4-yl)phenoxy)-3-(thiophen-2-yl)propan-1-amine]: the Ki in test [1] lay within 500 to 5000 nM; in test [2], 100 to 500 nM.

Take `CNCC[C@H](Oc1cccc(-c2ccnc(N3CCNCC3)n2)c1)c1ccccc1` [Example 28, (S)—N-Methyl-3-phenyl-3-(3-(2-(piperazin-1-yl)pyrimidin-4-yl)phenoxy)propan-1-amine]: the figures for the Ki in test [1] and in test [2] were 500 to 5000 nM and at least 1000 nM, respectively.

As for `CCNc1nccc(-c2cccc(O[C@@H](CCNC)c3ccccc3)c2)n1` [Example 29, (S)—N-ethyl-4-(3-(3-(methylamino)-1-phenylpropoxy)phenyl)pyrimidin-2-amine], the inhibition constant Ki in test [1] lay within 500 to 5000 nM; in test [2], 100 to 500 nM.

For the compound `CNCC[C@H](Oc1cccc(-c2ccnc(NC)n2)c1)c1ccccc1` [Example 30, (S)—N-methyl-4-(3-(3-(methylamino)-1-phenylpropoxy)phenyl)pyrimidin-2-amine], the Ki in test [1] is at least 5000 nM; in test [2] it was below 100 nM.

With `CNCC[C@H](Oc1cccc(-c2ccnc(N3CCN(C)CC3)n2)c1)c1ccccc1` [Example 31, (S)—N-methyl-3-(3-(2-(4-methylpiperazin-1-yl)pyrimidin-4-yl)phenoxy)-3-phenylpropan-1-amine], the inhibitory constant (Ki) was 500 to 5000 nM in test [1] and at least 1000 nM in test [2].

Take `CNCCNc1nccc(-c2cccc(O[C@@H](CCNC)c3ccccc3)c2)n1` [Example 32, (S)—N1-methyl-N2-(4-(3-(3-(methylamino)-1-phenylpropoxy)phenyl)pyrimidin-2-yl)ethane-1,2-diamine]: the inhibitory constant (Ki) is 500 to 5000 nM in test [1] and at least 1000 nM in test [2].

On to `CNCC[C@@H](Oc1cccc(-c2ccnc(N[C@@H]3CCNC3)n2)c1)c1ccccc1` [Example 33, 4-(3-((R)-3-(methylamino)-1-phenylpropoxy)phenyl)-N—((R)-pyrrolidin-3-yl)pyrimidin-2-amine], for which the results for the Ki in test [1] and in test [2] were 500 to 5000 nM and at least 1000 nM, respectively.

For `CNCC[C@@H](Oc1cccc(-c2ccnc(N[C@H]3CCNC3)n2)c1)c1ccccc1` [Example 34, 4-(3-((R)-3-(methylamino)-1-phenylpropoxy)phenyl)-N—((S)-pyrrolidin-3-yl)pyrimidin-2-amine], the figures for the Ki in test [1] and in test [2] were 500 to 5000 nM and 500 to 1000 nM, respectively.

With `CNCC[C@H](Oc1cccc(-c2ccnc(N(C)C)n2)c1)c1ccccc1` [Example 35, (S)—N,N-dimethyl-4-(3-(3-(methylamino)-1-phenylpropoxy)phenyl)pyrimidin-2-amine], the values for the Ki in test [1] and in test [2] were at least 5000 nM and below 100 nM, respectively.

With `CNCC[C@H](Oc1cccc(-c2ccnc(N[C@@H]3CCNC3)n2)c1)c1ccccc1` [Example 36, 4-(3-((S)-3-(methylamino)-1-phenylpropoxy)phenyl)-N—((R)-pyrrolidin-3-yl)pyrimidin-2-amine], the values for the inhibition constant Ki in test [1] and in test [2] were 500 to 5000 nM and 500 to 1000 nM, respectively.
